{"source": "patent US9529005B2", "about": "“Modulating bacterial MAM polypeptides in pathogenic disease” (priority 2011, dated 2016)", "experiment_in_all_cases": "Antimicrobial susceptibility testing (MIC), BD Phoenix Automated Microbiology System; on interpretation of the result: key: R, resistant; I, intermediate; S, susceptible; R*: *As a rule, when ESBL is detected, an interpretation of susceptible or intermediate for penicillins, cephalosporins and aztreonam is reported as resistant", "type_in_all_cases": "cell-based", "key": {"Acinetobacter baumannii": {"test_system": "Acinetobacter baumannii", "settings": "for MIC: Acinetobacter baumannii"}, "Escherichia coli": {"test_system": "Escherichia coli", "settings": "for MIC: Escherichia coli"}, "Klebsiella ssp.": {"test_system": "Klebsiella ssp.", "settings": "for MIC: Klebsiella"}, "Pseudomonas aeruginosa": {"test_system": "Pseudomonas aeruginosa", "settings": "for MIC: Pseudomonas aeruginosa"}, "[1]": {"settings": "Acinetobacter baumannii isolate 1"}, "[2]": {"settings": "Acinetobacter baumannii isolate 2"}, "[3]": {"settings": "Acinetobacter baumannii isolate 3"}, "[4]": {"settings": "Acinetobacter baumannii isolate 4"}, "[5]": {"settings": "Acinetobacter baumannii isolate 5"}, "[6]": {"settings": "read-out: minimal inhibiting concentration, Acinetobacter baumannii isolate 1"}, "[7]": {"settings": "read-out: minimal inhibiting concentration, Acinetobacter baumannii isolate 2"}, "[8]": {"settings": "read-out: minimal inhibiting concentration, Acinetobacter baumannii isolate 3"}, "[9]": {"settings": "read-out: minimal inhibiting concentration, Acinetobacter baumannii isolate 4"}, "[10]": {"settings": "read-out: minimal inhibiting concentration, Acinetobacter baumannii isolate 5"}, "[11]": {"settings": "read-out: minimal inhibiting concentration, Escherichia coli isolate 1"}, "[12]": {"settings": "read-out: minimal inhibiting concentration, Escherichia coli isolate 2"}, "[13]": {"settings": "read-out: minimal inhibiting concentration, Escherichia coli isolate 3"}, "[14]": {"settings": "read-out: minimal inhibiting concentration, Escherichia coli isolate 4"}, "[15]": {"settings": "read-out: minimal inhibiting concentration, Escherichia coli isolate 5"}, "[16]": {"settings": "read-out: minimal inhibiting concentration, Klebsiella ssp. isolate 1"}, "[17]": {"settings": "read-out: minimal inhibiting concentration, Klebsiella ssp. isolate 2"}, "[18]": {"settings": "read-out: minimal inhibiting concentration, Klebsiella ssp. isolate 3"}, "[19]": {"settings": "read-out: minimal inhibiting concentration, Klebsiella ssp. isolate 4"}, "[20]": {"settings": "read-out: minimal inhibiting concentration, Klebsiella ssp. isolate 5"}, "[21]": {"settings": "Pseudomonas aeruginosa isolate 1"}, "[22]": {"settings": "Pseudomonas aeruginosa isolate 2"}, "[23]": {"settings": "Pseudomonas aeruginosa isolate 3"}, "[24]": {"settings": "Pseudomonas aeruginosa isolate 4"}, "[25]": {"settings": "Pseudomonas aeruginosa isolate 5"}, "[26]": {"settings": "read-out: minimal inhibiting concentration, Pseudomonas aeruginosa isolate 1"}, "[27]": {"settings": "read-out: minimal inhibiting concentration, Pseudomonas aeruginosa isolate 2"}, "[28]": {"settings": "read-out: minimal inhibiting concentration, Pseudomonas aeruginosa isolate 3"}, "[29]": {"settings": "read-out: minimal inhibiting concentration, Pseudomonas aeruginosa isolate 4"}, "[30]": {"settings": "read-out: minimal inhibiting concentration, Pseudomonas aeruginosa isolate 5"}}, "note": "Like-named read-outs stand apart in the source and are kept apart here.", "data": [{"smiles": "C[C@@H](O)[C@H]1C(=O)N2C(C(=O)O)=C(S[C@@H]3CN[C@H](C(=O)N(C)C)C3)[C@H](C)[C@H]12", "note": "[Mero., Meropenem]", "values": [{"measurement": "interpretation of the result", "setting": "Acinetobacter baumannii; [1]", "result": "S"}, {"measurement": "interpretation of the result", "setting": "Acinetobacter baumannii; [2]", "result": "R"}, {"measurement": "interpretation of the result", "setting": "Acinetobacter baumannii; [3]", "result": "R"}, {"measurement": "interpretation of the result", "setting": "Acinetobacter baumannii; [4]", "result": "S"}, {"measurement": "interpretation of the result", "setting": "Acinetobacter baumannii; [5]", "result": "R"}, {"measurement": "MIC", "setting": "Acinetobacter baumannii; [6]", "result": 2, "unit": "µg/mL"}, {"measurement": "MIC", "setting": "Acinetobacter baumannii; [7]", "result": "> 8", "unit": "µg/mL"}, {"measurement": "MIC", "setting": "Acinetobacter baumannii; [8]", "result": "> 8", "unit": "µg/mL"}, {"measurement": "MIC", "setting": "Acinetobacter baumannii; [9]", "result": "≤ 1", "unit": "µg/mL"}, {"measurement": "MIC", "setting": "Acinetobacter baumannii; [10]", "result": "> 8", "unit": "µg/mL"}, {"measurement": "interpretation of the result", "setting": "Escherichia coli; Escherichia coli isolate 1", "result": "S"}, {"measurement": "interpretation of the result", "setting": "Escherichia coli; Escherichia coli isolate 2", "result": "S"}, {"measurement": "interpretation of the result", "setting": "Escherichia coli; Escherichia coli isolate 3", "result": "S"}, {"measurement": "interpretation of the result", "setting": "Escherichia coli; Escherichia coli isolate 4", "result": "S"}, {"measurement": "interpretation of the result", "setting": "Escherichia coli; Escherichia coli isolate 5", "result": "S"}, {"measurement": "MIC", "setting": "Escherichia coli; [11]", "result": "≤ 1", "unit": "µg/mL"}, {"measurement": "MIC", "setting": "Escherichia coli; [12]", "result": "≤ 1", "unit": "µg/mL"}, {"measurement": "MIC", "setting": "Escherichia coli; [13]", "result": "≤ 1", "unit": "µg/mL"}, {"measurement": "MIC", "setting": "Escherichia coli; [14]", "result": "≤ 1", "unit": "µg/mL"}, {"measurement": "MIC", "setting": "Escherichia coli; [15]", "result": "≤ 1", "unit": "µg/mL"}, {"measurement": "susceptibility of isolates", "setting": "Escherichia coli; all E. coli isolates", "result": "susceptible"}, {"measurement": "interpretation of the result", "setting": "Klebsiella ssp.; Klebsiella ssp. isolate 1", "result": "S"}, {"measurement": "interpretation of the result", "setting": "Klebsiella ssp.; Klebsiella ssp. isolate 2", "result": "S"}, {"measurement": "interpretation of the result", "setting": "Klebsiella ssp.; Klebsiella ssp. isolate 3", "result": "S"}, {"measurement": "interpretation of the result", "setting": "Klebsiella ssp.; Klebsiella ssp. isolate 4", "result": "S"}, {"measurement": "interpretation of the result", "setting": "Klebsiella ssp.; Klebsiella ssp. isolate 5", "result": "S"}, {"measurement": "MIC", "setting": "Klebsiella ssp.; [16]", "result": "≤ 1", "unit": "µg/mL"}, {"measurement": "MIC", "setting": "Klebsiella ssp.; [17]", "result": "≤ 1", "unit": "µg/mL"}, {"measurement": "MIC", "setting": "Klebsiella ssp.; [18]", "result": "≤ 1", "unit": "µg/mL"}, {"measurement": "MIC", "setting": "Klebsiella ssp.; [19]", "result": "≤ 1", "unit": "µg/mL"}, {"measurement": "MIC", "setting": "Klebsiella ssp.; [20]", "result": "≤ 1", "unit": "µg/mL"}, {"measurement": "susceptibility of isolates", "setting": "Klebsiella ssp.; all Klebsiella ssp. isolates", "result": "susceptible"}, {"measurement": "interpretation of the result", "setting": "Pseudomonas aeruginosa; [21]", "result": "S"}, {"measurement": "interpretation of the result", "setting": "Pseudomonas aeruginosa; [22]", "result": "R"}, {"measurement": "interpretation of the result", "setting": "Pseudomonas aeruginosa; [23]", "result": "R"}, {"measurement": "interpretation of the result", "setting": "Pseudomonas aeruginosa; [24]", "result": "R"}, {"measurement": "interpretation of the result", "setting": "Pseudomonas aeruginosa; [25]", "result": "S"}, {"measurement": "MIC", "setting": "Pseudomonas aeruginosa; [26]", "result": 4, "unit": "µg/mL"}, {"measurement": "MIC", "setting": "Pseudomonas aeruginosa; [27]", "result": "> 8", "unit": "µg/mL"}, {"measurement": "MIC", "setting": "Pseudomonas aeruginosa; [28]", "result": "> 8", "unit": "µg/mL"}, {"measurement": "MIC", "setting": "Pseudomonas aeruginosa; [29]", "result": "> 8", "unit": "µg/mL"}, {"measurement": "MIC", "setting": "Pseudomonas aeruginosa; [30]", "result": 4, "unit": "µg/mL"}]}, {"smiles": "O=C1CN(/N=C/c2ccc([N+](=O)[O-])o2)C(=O)N1", "note": "[Nf., Nitrofurantoin]", "values": [{"measurement": "interpretation of the result", "setting": "Acinetobacter baumannii; [1]", "result": "R"}, {"measurement": "interpretation of the result", "setting": "Acinetobacter baumannii; [2]", "result": "R"}, {"measurement": "interpretation of the result", "setting": "Acinetobacter baumannii; [3]", "result": "R"}, {"measurement": "interpretation of the result", "setting": "Acinetobacter baumannii; [4]", "result": "R"}, {"measurement": "interpretation of the result", "setting": "Acinetobacter baumannii; [5]", "result": "R"}, {"measurement": "MIC", "setting": "Acinetobacter baumannii; [6]", "result": "> 64", "unit": "µg/mL"}, {"measurement": "MIC", "setting": "Acinetobacter baumannii; [7]", "result": "> 64", "unit": "µg/mL"}, {"measurement": "MIC", "setting": "Acinetobacter baumannii; [8]", "result": "> 64", "unit": "µg/mL"}, {"measurement": "MIC", "setting": "Acinetobacter baumannii; [9]", "result": "> 64", "unit": "µg/mL"}, {"measurement": "MIC", "setting": "Acinetobacter baumannii; [10]", "result": "> 64", "unit": "µg/mL"}, {"measurement": "interpretation of the result", "setting": "Escherichia coli; Escherichia coli isolate 1", "result": "S"}, {"measurement": "interpretation of the result", "setting": "Escherichia coli; Escherichia coli isolate 2", "result": "S"}, {"measurement": "interpretation of the result", "setting": "Escherichia coli; Escherichia coli isolate 3", "result": "S"}, {"measurement": "interpretation of the result", "setting": "Escherichia coli; Escherichia coli isolate 4", "result": "S"}, {"measurement": "interpretation of the result", "setting": "Escherichia coli; Escherichia coli isolate 5", "result": "S"}, {"measurement": "MIC", "setting": "Escherichia coli; [11]", "result": 32, "unit": "µg/mL"}, {"measurement": "MIC", "setting": "Escherichia coli; [12]", "result": "≤ 16", "unit": "µg/mL"}, {"measurement": "MIC", "setting": "Escherichia coli; [13]", "result": "≤ 16", "unit": "µg/mL"}, {"measurement": "MIC", "setting": "Escherichia coli; [14]", "result": "≤ 16", "unit": "µg/mL"}, {"measurement": "MIC", "setting": "Escherichia coli; [15]", "result": "≤ 16", "unit": "µg/mL"}, {"measurement": "interpretation of the result", "setting": "Klebsiella ssp.; Klebsiella ssp. isolate 1", "result": "R"}, {"measurement": "interpretation of the result", "setting": "Klebsiella ssp.; Klebsiella ssp. isolate 2", "result": "R"}, {"measurement": "interpretation of the result", "setting": "Klebsiella ssp.; Klebsiella ssp. isolate 3", "result": "R"}, {"measurement": "interpretation of the result", "setting": "Klebsiella ssp.; Klebsiella ssp. isolate 4", "result": "R"}, {"measurement": "interpretation of the result", "setting": "Klebsiella ssp.; Klebsiella ssp. isolate 5", "result": "R"}, {"measurement": "MIC", "setting": "Klebsiella ssp.; [16]", "result": "> 64", "unit": "µg/mL"}, {"measurement": "MIC", "setting": "Klebsiella ssp.; [17]", "result": "> 64", "unit": "µg/mL"}, {"measurement": "MIC", "setting": "Klebsiella ssp.; [18]", "result": "> 64", "unit": "µg/mL"}, {"measurement": "MIC", "setting": "Klebsiella ssp.; [19]", "result": "> 64", "unit": "µg/mL"}, {"measurement": "MIC", "setting": "Klebsiella ssp.; [20]", "result": "> 64", "unit": "µg/mL"}, {"measurement": "interpretation of the result", "setting": "Pseudomonas aeruginosa; [21]", "result": "R"}, {"measurement": "interpretation of the result", "setting": "Pseudomonas aeruginosa; [22]", "result": "R"}, {"measurement": "interpretation of the result", "setting": "Pseudomonas aeruginosa; [23]", "result": "R"}, {"measurement": "interpretation of the result", "setting": "Pseudomonas aeruginosa; [24]", "result": "R"}, {"measurement": "interpretation of the result", "setting": "Pseudomonas aeruginosa; [25]", "result": "R"}, {"measurement": "MIC", "setting": "Pseudomonas aeruginosa; [26]", "result": "> 64", "unit": "µg/mL"}, {"measurement": "MIC", "setting": "Pseudomonas aeruginosa; [27]", "result": "> 64", "unit": "µg/mL"}, {"measurement": "MIC", "setting": "Pseudomonas aeruginosa; [28]", "result": "> 64", "unit": "µg/mL"}, {"measurement": "MIC", "setting": "Pseudomonas aeruginosa; [29]", "result": "> 64", "unit": "µg/mL"}, {"measurement": "MIC", "setting": "Pseudomonas aeruginosa; [30]", "result": "> 64", "unit": "µg/mL"}]}]}
